Measured values: patent publication US20240398817A1, “CARDIO- AND RENOSAFE ANTIDIABETIC THERAPY” (priority 2018, published 2024)

Test system: patients with type 2 diabetes at high vascular risk
Test: Cardiovascular and Renal Outcomes Trial: linagliptin 5 mg once daily vs placebo on top of standard of care
Assay type: in vivo
Details: for Hazard ratio for hospitalised heart failure: vs placebo
Procedure: The effect of linagliptin on cardiovascular risk in adult patients with type 2 diabetes mellitus and with increased CV risk evidenced by a history of established macrovascular or renal disease (e.g. as defined herein) was evaluated in a multi-center, multi-national, randomized, double-blind parallel group trial. The trial compared the risk of experiencing a major adverse cardiovascular event (MACE) between linagliptin and placebo when these were added to and used concomitantly with standard of care treatments for diabetes (HbA1c), cardiovascular risk factors and renal disease.
The primary endpoint in this trial was the time to first occurrence of three point (3P) MACE. A major adverse cardiac event was defined as a cardiovascular death or a nonfatal myocardial infarction (MI) or a nonfatal stroke. The statistical analysis plan tested for non-inferiority for the occurrence of (3P) MACE. […] The secondary endpoint was a renal composite, defined as renal death or sustained end stage renal disease or sustained decrease of 40% or more in eGFR.
Type 2 diabetes patient with insufficient glycemic control (naïve or pre-treated with any antidiabetic background medication, excluding treatment with GLP-1 receptor agonists, DPP-4inhibitors or SGLT-2 inhibitors if ≥consecutive 7 days, e.g. having HbA1c 6.5-10%), and high risk of cardiovascular events, e.g. defined by: • albuminuria (micro or macro) and previous macrovascular disease: e.g. defined according to Condition I as indicated below; • and/or • impaired renal function: e.g. as defined according to Condition II as indicated below;
Background and aims: People with type 2 diabetes (T2D) are at increased risk for hospitalization for heart failure (hHF), particularly in the setting of concomitant cardiovascular (CV) and/or kidney disease. […] Here we present analyses of HF outcomes with the DPP-4 inhibitor linagliptin (LINA) vs. placebo (PBO) from a Cardiovascular and Renal Outcomes Trial assessing cardiovascular safety and renal microvascular outcome in patients with type 2 diabetes at high vascular risk, a large CV outcomes trial that enrolled participants with T2D at high risk for hHF due to concomitant CV and/or chronic kidney disease. Materials and methods: People with T2D and concomitant CV and/or kidney disease were randomized to receive LINA 5 mg, or PBO once daily (1:1), on top of standard of care. All hHF, CV outcomes, and deaths were centrally adjudicated, with individual and composite HF-related outcomes analyses comparing LINA vs. placebo. Investigator-reported HF-related adverse events, whether or not confirmed by adjudication, were also analyzed. A Cox proportional hazards model adjusting for region and history of HF was used for analyses of first events. Recurrent hHF events were analyzed using a negative binomial model.
Methods: The present Cardiovascular and Renal Outcomes Trial randomized people with T2D and i) concomitant CV disease with UACR >30 mg/g or ii) prevalent CKD (i.e. GFR <45 ml/min/1.73m2 and/or UACR >200 mg/g) to receive the DPP-4 inhibitor linagliptin (5 mg) or placebo once daily in a double-blind fashion. The primary CV endpoint was 3P-MACE, with a key secondary kidney endpoint (adjudicated ESKD, renal death, or sustained ≥40% decrease in eGFR from baseline) and other renal outcomes (including albuminuria and eGFR slope) also assessed. Subgroups were assessed by baseline kidney function (eGFR ≥/<45 ml/min/1.73m2and eGFR ≥/<30, 45 or 60 ml/min/1.73m2).
Adults with type 2 diabetes, HbA1c 6.5-10.0% inclusive, and high CV risk were eligible for inclusion. […] Macrovascular disease eligibility criteria was based on documented and confirmed history of myocardial infarction, coronary artery disease, stroke, carotid artery disease, or peripheral artery disease. Participants with end-stage kidney disease (ESKD), defined as eGFR <15 or requiring maintenance dialysis, were excluded.

[1] = Urine albumin-to-creatinine ratio 30 to 300 mg/g
[2] = Urine albumin-to-creatinine ratio <30 mg/g
[3] = Urine albumin-to-creatinine ratio >300 mg/g

## CC#CCn1c(N2CCC[C@@H](N)C2)nc2c1c(=O)n(Cc1nc(C)c3ccccc3n1)c(=O)n2C [Linagliptin, 1-[(4-methyl-quinazolin-2-yl)methyl]-3-methyl-7-(2-butyn-1-yl)-8-(3-(R)-amino-piperidin-1-yl)-xanthine]
Race Other
  3-point MACE: hazard ratio vs placebo: 1.86
  3-point MACE: patients with event/patients analyzed: 23/166
  Key secondary kidney outcome: hazard ratio vs placebo: 1.16
  Key secondary kidney outcome: patients with event/patients analyzed: 23/166
  Patients with event/patients analysed, hospitalised heart failure: 6/166
Race White
  3-point MACE: hazard ratio vs placebo: 0.97
  3-point MACE: patients with event/patients analyzed: 340/2827
  Key secondary kidney outcome: hazard ratio vs placebo: 1.03
  Key secondary kidney outcome: patients with event/patients analyzed: 237/2827
  Patients with event/patients analysed, hospitalised heart failure: 174/2827
Region Asia
  3-point MACE: hazard ratio vs placebo: 0.90
  3-point MACE: patients with event/patients analyzed: 29/272
  Key secondary kidney outcome: hazard ratio vs placebo: 0.96
  Key secondary kidney outcome: patients with event/patients analyzed: 29/272
  Patients with event/patients analysed, hospitalised heart failure: 12/272
  Hazard ratio for hospitalised heart failure: 0.47
Region Europe + South Africa
  3-point MACE: hazard ratio vs placebo: 0.92
  3-point MACE: patients with event/patients analyzed: 182/1473
  Key secondary kidney outcome: hazard ratio vs placebo: 0.96
  Key secondary kidney outcome: patients with event/patients analyzed: 98/1473
  Patients with event/patients analysed, hospitalised heart failure: 101/1473
  Hazard ratio for hospitalised heart failure: 1.13
Region Latin America
  3-point MACE: hazard ratio vs placebo: 1.10
  3-point MACE: patients with event/patients analyzed: 132/1156
  Key secondary kidney outcome: hazard ratio vs placebo: 1.07
  Key secondary kidney outcome: patients with event/patients analyzed: 149/1156
  Patients with event/patients analysed, hospitalised heart failure: 54/1156
  Hazard ratio for hospitalised heart failure: 0.99
Region North America
  3-point MACE: hazard ratio vs placebo: 1.25
  3-point MACE: patients with event/patients analyzed: 91/593
  Key secondary kidney outcome: hazard ratio vs placebo: 1.19
  Key secondary kidney outcome: patients with event/patients analyzed: 51/593
  Patients with event/patients analysed, hospitalised heart failure: 42/593
  Hazard ratio for hospitalised heart failure: 0.65
SBP 140 mmHg or DBP ≥90 mmHg
  Key secondary kidney outcome: hazard ratio vs placebo: 1.08
  Key secondary kidney outcome: patients with event/patients analyzed: 222/1800
SBP <140 mmHg and DBP <90 mmHg
  3-point MACE: hazard ratio vs placebo: 0.93
  3-point MACE: patients with event/patients analyzed: 185/1694
  Key secondary kidney outcome: hazard ratio vs placebo: 0.99
  Key secondary kidney outcome: patients with event/patients analyzed: 105/1694
SBP ≥140 mmHg or DBP ≥90 mmHg
  3-point MACE: hazard ratio vs placebo: 1.11
  3-point MACE: patients with event/patients analyzed: 249/1800
Sulfonylurea No
  3-point MACE: hazard ratio vs placebo: 0.98
  3-point MACE: patients with event/patients analyzed: 315/2392
  Key secondary kidney outcome: hazard ratio vs placebo: 1.10
  Key secondary kidney outcome: patients with event/patients analyzed: 252/2392
  Patients with event/patients analysed, hospitalised heart failure: 166/2392
  Hazard ratio for hospitalised heart failure: 0.92
Sulfonylurea Yes
  3-point MACE: hazard ratio vs placebo: 1.15
  3-point MACE: patients with event/patients analyzed: 119/1102
  Key secondary kidney outcome: hazard ratio vs placebo: 0.87
  Key secondary kidney outcome: patients with event/patients analyzed: 75/1102
  Patients with event/patients analysed, hospitalised heart failure: 43/1102
  Hazard ratio for hospitalised heart failure: 0.82
Table 6
  Composite microvascular endpoint: patients, %: (36.3) %
  ESKD (component of kidney composite outcome): %: (0.03) %
  ESKD (component of kidney composite outcome): no.: 1
  Renal death, sustained ESKD, or sustained decrease of 50% or more in eGFR from baseline: %: (7.5) %
  Renal death, sustained ESKD, or sustained decrease of 50% or more in eGFR from baseline: no.: 263
  Sustained decrease of 40% or more in eGFR (component of kidney composite outcome): %: (1.8) %
  Sustained decrease of 40% or more in eGFR (component of kidney composite outcome): no.: 63
Table 9
  Composite microvascular outcome: number of patients, % of n = 3494: 22.5%
UACR 30 to 300 mg/g
  3-point MACE: hazard ratio vs placebo: 0.95
  3-point MACE: patients with event/patients analyzed: 158/1463
  Key secondary kidney outcome: hazard ratio vs placebo: 1.30
  Key secondary kidney outcome: patients with event/patients analyzed: 53/1463
UACR <30 mg/g
  3-point MACE: hazard ratio vs placebo: 1.10
  3-point MACE: patients with event/patients analyzed: 67/696
  Key secondary kidney outcome: hazard ratio vs placebo: 1.46
  Key secondary kidney outcome: patients with event/patients analyzed: 22/696
UACR >300 mg/g
  3-point MACE: hazard ratio vs placebo: 1.06
  3-point MACE: patients with event/patients analyzed: 208/1333
  Key secondary kidney outcome: hazard ratio vs placebo: 0.97
  Key secondary kidney outcome: patients with event/patients analyzed: 252/1333
[1]
  Patients with event/patients analysed, hospitalised heart failure: 72/1463
  Hazard ratio for hospitalised heart failure: 0.86
[2]
  Patients with event/patients analysed, hospitalised heart failure: 26/696
  Hazard ratio for hospitalised heart failure: 0.76
[3]
  Patients with event/patients analysed, hospitalised heart failure: 111/1333
  Hazard ratio for hospitalised heart failure: 0.99
Across GFR categories
  HbA1c vs PBO across all GFR categories, in words: reduced significantly
  Risk for hypoglycemia vs PBO across all GFR categories, in words: without increased risk for hypoglycemia
Across eGFR categories
  Progression of albuminuria across all eGFR categories, in words: consistent beneficial effect
All patients
  3P-MACE: incidence rate per 1000 PY: 57.7 per 1000 patient years
